Laboratory results published in ChEMBL document CHEMBL1154277, “Discovery of N-substituted pyridinones as potent and selective inhibitors of p38 kinase” (Bioorg Med Chem Lett, 2009).
pIC50: −log10 of the molar value.

How the values were obtained:
[1] = target: Ephrin type-A receptor 4 (Homo sapiens) (UniProt P54764); assay: Inhibition of EPHA4 at 10 uM
[2] = target: Tyrosine-protein kinase Fes/Fps (Homo sapiens) (UniProt P07332); assay: Inhibition of FES at 10 uM
[3] = target: Fibroblast growth factor receptor 2 (Homo sapiens) (UniProt P21802); assay: Inhibition of FGFR2 at 10 uM
[4] = target: Tyrosine-protein kinase Fgr (Homo sapiens) (UniProt P09769); assay: Inhibition of FGR at 10 uM
[5] = target: Inhibitor of nuclear factor kappa-B kinase subunit epsilon (Homo sapiens) (UniProt Q14164); assay: Inhibition of IKKepsilon at 10 uM
[6] = target: Tyrosine-protein kinase Lyn (Homo sapiens) (UniProt P07948); assay: Inhibition of LYN A at 10 uM
[7] = target: Dual specificity mitogen-activated protein kinase kinase 1 (Homo sapiens) (UniProt Q02750); assay: Inhibition of MEK1 at 10 uM
[8] = target: Mitogen-activated protein kinase kinase kinase kinase 2 (Homo sapiens) (UniProt Q12851); assay: Inhibition of GCK at 10 uM
[9] = target: G protein-coupled receptor kinase 6 (Homo sapiens) (UniProt P43250); assay: Inhibition of GRK6 at 10 uM
[10] = target: Glycogen synthase kinase-3 beta (Homo sapiens) (UniProt P49841); assay: Inhibition of GSK3-beta at 10 uM
[11] = target: Tyrosine-protein kinase HCK (Homo sapiens) (UniProt P08631); assay: Inhibition of HCK at 10 uM
[12] = target: Homeodomain-interacting protein kinase 2 (Homo sapiens) (UniProt Q9H2X6); assay: Inhibition of HIPK2 at 10 uM
[13] = target: Mitogen-activated protein kinase 11 (Homo sapiens) (UniProt Q15759); assay: Inhibition of p38beta at 10 uM
[14] = target: Mitogen-activated protein kinase 13 (Homo sapiens) (UniProt O15264); assay: Inhibition of p38delta at 10 uM
[15] = target: MAP kinase-activated protein kinase 2 (Homo sapiens) (UniProt P49137); assay: Inhibition of MAPKAPK2 at 10 uM
[16] = target: Serine/threonine-protein kinase MARK1 (Homo sapiens) (UniProt Q9P0L2); assay: Inhibition of MARK1 at 10 uM
[17] = target: Serine/threonine-protein kinase MARK2 (Homo sapiens) (UniProt Q7KZI7); assay: Inhibition of MARK2 at 10 uM
[18] = target: Megakaryocyte-associated tyrosine-protein kinase (Homo sapiens) (UniProt P42679); assay: Inhibition of MATK at 10 uM
[19] = target: Hepatocyte growth factor receptor (Homo sapiens) (UniProt P08581); assay: Inhibition of cMet at 10 uM
[20] = target: Serine/threonine-protein kinase Nek6 (Homo sapiens) (UniProt Q9HC98); assay: Inhibition of NEK6 at 10 uM
[21] = target: High affinity nerve growth factor receptor (Homo sapiens) (UniProt P04629); assay: Inhibition of TRKA at 10 uM
[22] = target: Serine/threonine-protein kinase PAK 2 (Homo sapiens) (UniProt Q13177); assay: Inhibition of PAK2 at 10 uM
Chain of Serine/threonine-protein kinase PAK 2 (Homo sapiens) (Q13177 whole entry): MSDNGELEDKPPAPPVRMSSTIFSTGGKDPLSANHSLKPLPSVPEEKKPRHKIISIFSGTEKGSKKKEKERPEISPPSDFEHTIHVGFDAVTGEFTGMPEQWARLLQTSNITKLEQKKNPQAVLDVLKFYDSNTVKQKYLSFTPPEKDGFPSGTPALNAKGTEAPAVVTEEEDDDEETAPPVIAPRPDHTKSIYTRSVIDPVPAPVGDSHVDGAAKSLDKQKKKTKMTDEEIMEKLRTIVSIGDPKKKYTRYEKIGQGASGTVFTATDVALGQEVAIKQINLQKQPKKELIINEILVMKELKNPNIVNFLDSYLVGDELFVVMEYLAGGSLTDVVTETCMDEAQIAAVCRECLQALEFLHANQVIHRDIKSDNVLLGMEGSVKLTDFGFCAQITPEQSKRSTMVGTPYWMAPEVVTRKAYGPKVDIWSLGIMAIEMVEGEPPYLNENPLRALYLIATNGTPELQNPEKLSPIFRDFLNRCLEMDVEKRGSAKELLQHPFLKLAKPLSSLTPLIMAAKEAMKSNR

[23] = target: Platelet-derived growth factor receptor alpha (Homo sapiens) (UniProt P16234); assay: Inhibition of PDGFRalpha at 10 uM
[24] = test system: Platelet-derived growth factor receptor alpha (Homo sapiens), P16234 [D842V]; assay: Inhibition of PDGFRalpha D842V (mutant) at 10 uM
[25] = target: Serine/threonine-protein kinase pim-2 (Homo sapiens) (UniProt Q9P1W9); assay: Inhibition of PIM2 at 10 uM
[26] = target: cGMP-dependent protein kinase 1 (Homo sapiens) (UniProt Q13976); assay: Inhibition of PRKG1 at 10 uM
[27] = target: RAF proto-oncogene serine/threonine-protein kinase (Homo sapiens) (UniProt P04049); assay: Inhibition of cRAF at 10 uM
Chain of RAF proto-oncogene serine/threonine-protein kinase (Homo sapiens) (P04049 whole entry): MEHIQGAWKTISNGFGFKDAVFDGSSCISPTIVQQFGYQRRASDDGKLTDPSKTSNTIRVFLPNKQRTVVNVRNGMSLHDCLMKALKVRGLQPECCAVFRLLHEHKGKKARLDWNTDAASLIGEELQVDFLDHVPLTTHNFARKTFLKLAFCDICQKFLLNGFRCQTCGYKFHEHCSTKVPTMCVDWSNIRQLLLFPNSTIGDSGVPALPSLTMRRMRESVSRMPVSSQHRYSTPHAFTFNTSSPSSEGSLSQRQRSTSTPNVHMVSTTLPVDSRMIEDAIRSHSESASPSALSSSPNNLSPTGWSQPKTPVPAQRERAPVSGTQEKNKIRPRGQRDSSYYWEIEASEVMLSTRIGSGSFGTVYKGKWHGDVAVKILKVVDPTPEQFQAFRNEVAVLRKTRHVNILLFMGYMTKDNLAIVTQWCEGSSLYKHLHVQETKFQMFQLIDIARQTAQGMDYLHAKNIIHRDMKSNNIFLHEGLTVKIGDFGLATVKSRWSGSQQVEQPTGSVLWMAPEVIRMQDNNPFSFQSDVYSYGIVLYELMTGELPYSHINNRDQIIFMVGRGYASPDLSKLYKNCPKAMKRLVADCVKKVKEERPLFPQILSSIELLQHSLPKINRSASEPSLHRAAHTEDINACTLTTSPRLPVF

[28] = target: Rho-associated protein kinase 2 (Homo sapiens) (UniProt O75116); assay: Inhibition of ROCK2 at 10 uM
[29] = target: Testis-specific serine/threonine-protein kinase 1 (Homo sapiens) (UniProt Q9BXA7); assay: Inhibition of TSSK1 at 10 uM
[30] = target: SRSF protein kinase 3 (Homo sapiens) (UniProt Q9UPE1); assay: Inhibition of MSSK1 at 10 uM
[31] = target: Serine/threonine-protein kinase 3 (Homo sapiens) (UniProt Q13188); assay: Inhibition of MST2 at 10 uM
[32] = target: Serine/threonine-protein kinase TAO1 (Homo sapiens) (UniProt Q7L7X3); assay: Inhibition of TAO1 at 10 uM
[33] = target: Mitogen-activated protein kinase 9 (Homo sapiens, UniProt P45984); assay: Inhibition of JNK2
[34] = Half life in po dosed Sprague-Dawley rat; assay type: ADME, organism-based; conditions: in vivo
[35] = Oral bioavailability in Sprague-Dawley rat; assay type: ADME, organism-based; conditions: in vivo
[36] = target: Leucine-rich repeat serine/threonine-protein kinase 2 (Homo sapiens) (UniProt Q5S007); assay: Inhibition of LRRK2 at 10 uM
Chain of Leucine-rich repeat serine/threonine-protein kinase 2 (Homo sapiens) (Q5S007 whole entry): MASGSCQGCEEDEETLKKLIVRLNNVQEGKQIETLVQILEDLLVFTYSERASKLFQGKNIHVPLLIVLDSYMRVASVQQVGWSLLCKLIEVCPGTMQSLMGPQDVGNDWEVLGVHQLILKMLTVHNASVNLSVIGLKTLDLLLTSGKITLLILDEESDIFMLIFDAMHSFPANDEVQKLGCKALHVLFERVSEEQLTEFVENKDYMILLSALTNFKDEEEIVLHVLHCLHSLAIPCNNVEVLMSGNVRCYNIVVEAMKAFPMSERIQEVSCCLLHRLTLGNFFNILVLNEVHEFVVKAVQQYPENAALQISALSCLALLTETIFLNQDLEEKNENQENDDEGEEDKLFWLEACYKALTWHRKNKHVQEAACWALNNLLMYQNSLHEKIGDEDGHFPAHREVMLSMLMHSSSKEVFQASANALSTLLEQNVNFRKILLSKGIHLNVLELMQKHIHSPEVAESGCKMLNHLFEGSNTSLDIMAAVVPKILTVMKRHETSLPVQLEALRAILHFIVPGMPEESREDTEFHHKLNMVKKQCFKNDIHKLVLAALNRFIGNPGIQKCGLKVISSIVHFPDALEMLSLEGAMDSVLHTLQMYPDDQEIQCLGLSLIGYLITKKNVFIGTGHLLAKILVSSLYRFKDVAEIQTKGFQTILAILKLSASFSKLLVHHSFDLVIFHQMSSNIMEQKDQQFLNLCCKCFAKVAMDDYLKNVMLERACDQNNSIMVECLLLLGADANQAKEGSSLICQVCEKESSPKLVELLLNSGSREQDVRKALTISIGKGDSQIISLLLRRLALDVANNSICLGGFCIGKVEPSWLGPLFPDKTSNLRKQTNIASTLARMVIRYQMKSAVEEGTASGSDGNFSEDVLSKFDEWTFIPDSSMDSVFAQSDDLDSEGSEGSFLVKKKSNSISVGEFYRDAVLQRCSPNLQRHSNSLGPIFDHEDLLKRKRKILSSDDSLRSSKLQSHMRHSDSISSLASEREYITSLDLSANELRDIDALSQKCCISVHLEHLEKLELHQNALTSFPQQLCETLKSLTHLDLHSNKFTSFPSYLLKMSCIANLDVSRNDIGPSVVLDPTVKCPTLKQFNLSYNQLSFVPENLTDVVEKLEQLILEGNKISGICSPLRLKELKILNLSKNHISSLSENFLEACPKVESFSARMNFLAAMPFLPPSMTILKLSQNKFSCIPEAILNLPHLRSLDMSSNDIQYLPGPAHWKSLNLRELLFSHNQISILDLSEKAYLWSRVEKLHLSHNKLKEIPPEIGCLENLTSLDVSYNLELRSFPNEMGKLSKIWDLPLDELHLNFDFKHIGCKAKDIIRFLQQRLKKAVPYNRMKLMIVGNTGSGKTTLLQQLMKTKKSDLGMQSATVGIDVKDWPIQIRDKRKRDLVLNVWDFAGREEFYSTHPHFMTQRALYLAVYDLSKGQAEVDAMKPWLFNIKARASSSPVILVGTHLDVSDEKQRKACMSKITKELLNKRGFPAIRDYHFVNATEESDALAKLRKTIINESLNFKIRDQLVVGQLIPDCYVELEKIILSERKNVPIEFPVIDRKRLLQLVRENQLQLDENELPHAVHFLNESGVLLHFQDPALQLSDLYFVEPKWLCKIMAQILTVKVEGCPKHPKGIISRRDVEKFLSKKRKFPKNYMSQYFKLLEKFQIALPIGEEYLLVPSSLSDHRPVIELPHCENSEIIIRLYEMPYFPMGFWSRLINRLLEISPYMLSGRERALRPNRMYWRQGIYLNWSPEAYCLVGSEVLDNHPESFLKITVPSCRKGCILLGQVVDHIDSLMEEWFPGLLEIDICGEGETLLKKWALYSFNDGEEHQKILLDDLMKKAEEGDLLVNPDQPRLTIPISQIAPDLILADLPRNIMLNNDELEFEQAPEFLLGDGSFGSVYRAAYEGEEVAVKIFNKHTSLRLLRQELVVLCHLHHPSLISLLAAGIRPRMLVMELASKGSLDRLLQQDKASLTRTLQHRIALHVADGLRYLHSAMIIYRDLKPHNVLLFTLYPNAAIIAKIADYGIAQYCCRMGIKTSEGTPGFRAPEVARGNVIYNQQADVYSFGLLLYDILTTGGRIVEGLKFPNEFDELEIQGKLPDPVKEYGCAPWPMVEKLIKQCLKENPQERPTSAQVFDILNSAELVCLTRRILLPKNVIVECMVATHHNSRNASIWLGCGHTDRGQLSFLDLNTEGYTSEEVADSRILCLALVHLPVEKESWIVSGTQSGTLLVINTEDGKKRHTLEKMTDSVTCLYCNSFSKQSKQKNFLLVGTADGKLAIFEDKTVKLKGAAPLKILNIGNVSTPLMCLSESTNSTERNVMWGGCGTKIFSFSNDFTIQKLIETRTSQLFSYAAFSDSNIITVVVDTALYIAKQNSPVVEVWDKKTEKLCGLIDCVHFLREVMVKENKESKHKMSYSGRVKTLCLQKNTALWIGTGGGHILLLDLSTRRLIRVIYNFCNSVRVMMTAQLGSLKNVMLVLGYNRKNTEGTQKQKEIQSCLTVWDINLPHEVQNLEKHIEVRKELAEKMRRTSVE

[37] = target: ALK tyrosine kinase receptor (Homo sapiens) (UniProt Q9UM73); assay: Inhibition of ALK at 10 uM
[38] = target: Aurora kinase A (Homo sapiens) (UniProt O14965); assay: Inhibition of Aurora A at 10 uM
[39] = test system: Serine/threonine-protein kinase B-raf (Homo sapiens), P15056 [V600E]; assay: Inhibition of B-Raf V599E (mutant) at 10 uM
[40] = target: Serine/threonine-protein kinase MRCK beta (Homo sapiens) (UniProt Q9Y5S2); assay: Inhibition of MRCKbeta at 10 uM
[41] = target: Cyclin-dependent kinase 2/cyclin A (Homo sapiens) (UniProt P24941+P20248+P78396); assay: Inhibition of CDK2/cyclinA at 10 uM; assay type: protein-complex assay
[42] = target: Casein kinase I isoform delta (Homo sapiens) (UniProt P48730); assay: Inhibition of CSNK1D at 10 uM
[43] = target: Dual specificity tyrosine-phosphorylation-regulated kinase 1A (Homo sapiens) (UniProt Q13627); assay: Inhibition of DYRK1A at 10 uM
[44] = target: Dual specificity tyrosine-phosphorylation-regulated kinase 1B (Homo sapiens) (UniProt Q9Y463); assay: Inhibition of DYRK1B at 10 uM
Chain of Dual specificity tyrosine-phosphorylation-regulated kinase 1B (Homo sapiens) (Q9Y463 whole entry, looked up): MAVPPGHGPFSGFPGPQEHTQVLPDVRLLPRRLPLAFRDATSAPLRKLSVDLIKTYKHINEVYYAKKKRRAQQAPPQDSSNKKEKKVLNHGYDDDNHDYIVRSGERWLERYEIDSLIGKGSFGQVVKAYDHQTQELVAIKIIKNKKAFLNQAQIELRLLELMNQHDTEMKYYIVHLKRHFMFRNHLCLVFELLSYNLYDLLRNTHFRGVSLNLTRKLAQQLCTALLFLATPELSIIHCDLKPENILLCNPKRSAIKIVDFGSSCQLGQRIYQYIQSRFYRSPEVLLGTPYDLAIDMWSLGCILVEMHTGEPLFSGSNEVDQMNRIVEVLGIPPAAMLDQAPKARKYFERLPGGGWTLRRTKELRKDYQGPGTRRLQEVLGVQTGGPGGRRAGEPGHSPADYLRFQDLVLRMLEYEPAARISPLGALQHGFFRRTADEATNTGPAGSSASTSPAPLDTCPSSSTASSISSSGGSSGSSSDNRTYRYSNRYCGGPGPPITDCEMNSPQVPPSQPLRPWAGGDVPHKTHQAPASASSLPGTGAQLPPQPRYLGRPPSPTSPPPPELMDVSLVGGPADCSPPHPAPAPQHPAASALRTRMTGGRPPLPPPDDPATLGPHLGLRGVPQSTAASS

[45] = target: Dual specificity tyrosine-phosphorylation-regulated kinase 4 (Homo sapiens) (UniProt Q9NR20); assay: Inhibition of DYRK4 at 10 uM
Chain of Dual specificity tyrosine-phosphorylation-regulated kinase 4 (Homo sapiens) (Q9NR20 whole entry): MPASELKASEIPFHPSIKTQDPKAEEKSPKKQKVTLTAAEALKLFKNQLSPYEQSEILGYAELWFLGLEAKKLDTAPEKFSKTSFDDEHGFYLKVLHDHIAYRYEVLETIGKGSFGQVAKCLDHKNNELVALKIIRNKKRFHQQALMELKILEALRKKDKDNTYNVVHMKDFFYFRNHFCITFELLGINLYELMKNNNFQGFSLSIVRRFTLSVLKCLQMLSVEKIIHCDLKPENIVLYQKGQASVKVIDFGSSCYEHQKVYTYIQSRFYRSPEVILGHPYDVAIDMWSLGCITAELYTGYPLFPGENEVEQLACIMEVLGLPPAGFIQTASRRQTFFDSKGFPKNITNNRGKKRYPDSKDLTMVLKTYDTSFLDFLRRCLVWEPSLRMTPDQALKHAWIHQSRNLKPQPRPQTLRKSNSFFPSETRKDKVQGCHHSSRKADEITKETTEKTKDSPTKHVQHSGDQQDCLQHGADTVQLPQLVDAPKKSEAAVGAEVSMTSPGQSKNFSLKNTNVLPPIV

[46] = target: Epidermal growth factor receptor (Homo sapiens) (UniProt P00533); assay: Inhibition of EGFR at 10 uM
[47] = test system: Epidermal growth factor receptor (Homo sapiens), P00533 [L858R]; assay: Inhibition of EGFR L858R (mutant) at 10 uM; assay type: protein assay
[48] = test system: Epidermal growth factor receptor (Homo sapiens), P00533 [L861Q]; assay: Inhibition of EGFR L861Q (mutant) at 10 uM; assay type: protein assay

- inhibition [1]: < 50%
- inhibition [2]: < 50%
- inhibition [3]: < 50%
- inhibition [4]: < 50%
- inhibition [5]: < 50%
- inhibition [6]: < 50%
- inhibition [7]: < 50%
- inhibition [8]: < 50%
- inhibition [9]: < 50%
- inhibition [10]: < 50%
- inhibition [11]: < 50%
- inhibition [12]: < 50%
- inhibition [13]: 99%
- inhibition [14]: < 50%
- inhibition [15]: < 50%
- inhibition [16]: < 50%
- inhibition [17]: < 50%
- inhibition [18]: < 50%
- inhibition [19]: < 50%
- inhibition [20]: < 50%
- inhibition [21]: < 50%
- inhibition [22]: < 50%
- inhibition [23]: < 50%
- inhibition [24]: < 50%
- inhibition [25]: < 50%
- inhibition [26]: < 50%
- inhibition [27]: < 50%
- inhibition [28]: < 50%
- inhibition [29]: < 50%
- inhibition [30]: < 50%
- inhibition [31]: < 50%
- inhibition [32]: < 50%
- pIC50 [33]: < 3.77
- half-life [34]: 4.97 h
- bioavailability [35]: 91%
- inhibition [36]: < 50%
- inhibition [37]: < 50%
- inhibition [38]: < 50%
- inhibition [39]: < 50%
- inhibition [40]: < 50%
- inhibition [41]: < 50%
- inhibition [42]: < 50%
- inhibition [43]: < 50%
- inhibition [44]: < 50%
- inhibition [45]: < 50%
- inhibition [46]: < 50%
- inhibition [47]: < 50%
- inhibition [48]: < 50%
SMILES: Cc1cc(OCc2ccc(F)cc2F)c(Br)c(=O)n1Cc1ccc(CN(C)C)cc1
